Reference: PMC5584945, “Evaluation of robenidine analog NCL195 as a novel broad-spectrum antibacterial agent” (PLoS ONE, 2017)
Values after ≈ are worked out from the molar mass of the structure shown.

Columns and labels:
[1] = tested on: S. pneumoniae; assay: MIC, broth micro-dilution (CLSI); type: cell-based, Streptococcus pneumoniae; conditions: for MIC / MIC50 / MIC90: Streptococcus pneumoniae
[2] = tested on: S. aureus; assay: MIC, broth micro-dilution (CLSI); type: cell-based, Staphylococcus aureus

Cc1ccc(/C=N/Nc2cc(N/N=C/c3ccc(C)cc3)nc(N)n2)cc1 [NCL195, 4,6-bis(2-((E)-4-methylbenzylidene)hydrazinyl)pyrimidin-2-amine]
MIC range ([1]; 21 isolates): 2 to 8 mg/L | MIC range ([1]; S1 Table isolates, 5% FBS + 3% washed RBC): 2 to 8 mg/L | MIC range ([1]; S1 Table isolates, 10% FBS + 3% washed RBC): 2 to 8 mg/L | Change of MIC in the presence of serum ([1]; S. pneumoniae D39, human, horse or mouse serum): remained the same | MIC ([1]; A66.1 (serotype 3), 5% FBS): 8 mg/L (≈ 22.3 µM) | MIC ([1]; A66.1 (serotype 3), 10% FBS): 8 mg/L (≈ 22.3 µM) | MIC ([1]; ATCC6303, ATCC 6303 (serotype 3), 5% FBS + 3% washed RBC): 4 mg/L | MIC ([1]; ATCC6303, ATCC 6303 (serotype 3), 10% FBS + 3% washed RBC): 4 mg/L | MIC ([1]; D39/D39LUX (serotype 2), 5% FBS): 8 mg/L (≈ 22.3 µM) | MIC ([1]; D39/D39LUX (serotype 2), 10% FBS): 8 mg/L (≈ 22.3 µM) | MIC ([1]; EF3030 (serotype 19F), 5% FBS): 8 mg/L (≈ 22.3 µM) | MIC ([1]; EF3030 (serotype 19F), 10% FBS): 8 mg/L (≈ 22.3 µM) | MIC ([1]; L82016 (serotype 6B), 5% FBS): 4 mg/L (≈ 11.1 µM) | MIC ([1]; L82016 (serotype 6B), 10% FBS): 8 mg/L (≈ 22.3 µM) | MIC ([1]; P9 (serotype 6A), 5% FBS): 8 mg/L (≈ 22.3 µM) | MIC ([1]; P9 (serotype 6A), 10% FBS): 8 mg/L (≈ 22.3 µM) | MIC ([1]; P21 (serotype 3), 5% FBS): 8 mg/L (≈ 22.3 µM) | MIC ([1]; P21 (serotype 3), 10% FBS): 8 mg/L (≈ 22.3 µM) | MIC50 ([1]; S1 Table isolates, 5% FBS): 4 mg/L (≈ 11.1 µM) | MIC90 ([1]; S1 Table isolates, 5% FBS): 8 mg/L (≈ 22.3 µM) | MIC50 ([1]; S1 Table isolates, 10% FBS): 8 mg/L (≈ 22.3 µM) | MIC90 ([1]; S1 Table isolates, 10% FBS): 8 mg/L (≈ 22.3 µM) | MIC ([1]; TIGR4 (serotype 4), 5% FBS): 4 mg/L (≈ 11.1 µM) | MIC ([1]; TIGR4 (serotype 4), 10% FBS): 4 mg/L (≈ 11.1 µM) | MIC ([1]; WCH16 (serotype 6A), 5% FBS): 8 mg/L (≈ 22.3 µM) | MIC ([1]; WCH16 (serotype 6A), 10% FBS): 8 mg/L (≈ 22.3 µM) | MIC ([1]; WCH43 (serotype 4), 5% FBS): 4 mg/L (≈ 11.1 µM) | MIC ([1]; WCH43 (serotype 4), 10% FBS): 4 mg/L (≈ 11.1 µM) | MIC ([1]; WCH46 (serotype 4), 5% FBS): 4 mg/L (≈ 11.1 µM) | MIC ([1]; WCH46 (serotype 4), 10% FBS): 4 mg/L (≈ 11.1 µM) | MIC ([1]; WCH57 (serotype 8), 5% FBS): 4 mg/L (≈ 11.1 µM) | MIC ([1]; WCH57 (serotype 8), 10% FBS): 4 mg/L (≈ 11.1 µM) | MIC ([1]; WCH77 (serotype 5), 5% FBS): 2 mg/L (≈ 5.56 µM) | MIC ([1]; WCH77 (serotype 5), 10% FBS): 2 mg/L (≈ 5.56 µM) | MIC ([1]; WCH86 (serotype 4), 5% FBS): 4 mg/L (≈ 11.1 µM) | MIC ([1]; WCH86 (serotype 4), 10% FBS): 4 mg/L (≈ 11.1 µM) | MIC ([1]; WCH89 (serotype 7), 5% FBS): 8 mg/L (≈ 22.3 µM) | MIC ([1]; WCH89 (serotype 7), 10% FBS): 8 mg/L (≈ 22.3 µM) | MIC ([1]; WCH92 (serotype 4), 5% FBS): 4 mg/L (≈ 11.1 µM) | MIC ([1]; WCH92 (serotype 4), 10% FBS): 4 mg/L (≈ 11.1 µM) | MIC ([1]; WCH137 (serotype 6A), 5% FBS): 8 mg/L (≈ 22.3 µM) | MIC ([1]; WCH137 (serotype 6A), 10% FBS): 8 mg/L (≈ 22.3 µM) | MIC ([1]; WCH158 (serotype 19F), 5% FBS): 4 mg/L (≈ 11.1 µM) | MIC ([1]; WCH158 (serotype 19F), 10% FBS): 4 mg/L (≈ 11.1 µM) | MIC ([1]; WCH184 (serotype 19F), 5% FBS): 8 mg/L (≈ 22.3 µM) | MIC ([1]; WCH184 (serotype 19F), 10% FBS): 8 mg/L (≈ 22.3 µM) | MIC ([1]; WCH211 (serotype 11), 5% FBS): 4 mg/L (≈ 11.1 µM) | MIC ([1]; WCH211 (serotype 11), 10% FBS): 4 mg/L (≈ 11.1 µM) | MIC ([1]; WU2 (serotype 3), 5% FBS): 8 mg/L (≈ 22.3 µM) | MIC ([1]; WU2 (serotype 3), 10% FBS): 8 mg/L (≈ 22.3 µM) | Fold increase of MIC range in the presence of 10% FBS ([2]; 10% FBS versus no FBS): 4 fold | MIC range ([2]; 23 isolates): 1 to 2 mg/L | MIC range ([2]; S2 Table isolates, 10% FBS): 4 to 8 mg/L | MIC range ([2]; S2 Table isolates, absence of FBS): 1 to 2 mg/L
